{"source": "patent US7745410B2", "about": "“Bladder tumor-targeting peptide and use thereof” (Kyungpook National University Industry-Academica …, priority 2006, dated 2010)", "key": {"[1]": {"system": "human bladder tumor tissue", "assay": "Binding of FITC-peptide to frozen tissue sections (fluorescence microscopy)", "conditions": "10 μM peptide, 4° C., 1 hour, FIG. 4", "procedure": "FIG. 4 is a set of photographs showing the binding specificity to the frozen section of human bladder tumor cells of the peptide according to the present invention having FITC attached thereto, wherein the green fluorescence represents the peptide according to the present invention, and the blue fluorescence represents the nucleus stained with DAPI;\nNext, 10 μM of the peptide, FITC-CSNRDARRC, was allowed to react with the tissues at 4° C. for 1 hour. As a control, a peptide (SEQ ID NO: 10; CDASRRNRC), which had the same number of amino acids as the peptide according to the present invention but included a randomly modified amino acid sequence between both terminal cystein residues, was used. After the reaction of each peptide, a mounting solution (molecular Probe) containing a nucleus staining reagent, DAPI (4′,6-diamidino-2-phenylindole), was treated on the surface of the slide according to the method known to one skilled in the art. Then, the slide was observed by using a fluorescence microscope."}, "[2]": {"system": "cells separated from the urine of a patient suffering from bladder tumor", "assay": "Binding of FITC-peptide to cells collected from urine (fluorescence microscopy)", "format": "cell-based, human", "conditions": "4° C., 1 hour; FIG. 7", "procedure": "FIG. 7 is a set of fluorescence microscopic photographs showing the binding specificity of the target peptide having FITC attached thereto to cells separated from the urine of a patient suffering from bladder tumor, wherein the green fluorescence represents the peptide according to the present invention, and the blue fluorescence represents the nucleus stained with DAPI;\nUrine of a patient that was in the hospital for surgical operation on the bladder tumor was centrifuged with 1500 rpm at 4° C. for 10 minutes to collect cells. As a control, bladder cells, collected from the urine of a normal human in the same manner as described above, were used. Next, the collected cells were allowed to react with the FITC-peptide 1 described in Example <2-2> and the control peptide (SEQ ID NO: 10) at 4° C. for 1 hour. After staining the cells with DAPI, the cells were transferred onto a slide and observed with a fluorescence microscope. Meanwhile, the cells were stained with the PAP staining method (Papanicolau and Marshall, Science 101:519, 1945), currently used as a method for the diagnosis of bladder tumor, to observe the presence of tumor cells."}, "[3]": {"system": "BBN-induced bladder tumor", "assay": "In vivo micro PET imaging after intravenous injection of radiolabeled peptides", "parameters": "species or system rat", "conditions": "14 hours after intravenous injection; tumor-bearing F344 rats; 380 μCi peptide 1, 313 μCi control; FIG. 8", "procedure": "For radioiodination, each of CSNRDARRC peptide (SEQ ID NO: 1) and CDASRRNRC control peptide (SEQ ID NO: 10) was added with a tyrosine residue at the N-terminus during synthesis. […] The synthetic peptide was labeled with [131I]NaI by using Iodo-bead (Pierce Biochemical Co., Rockford, Ill.). The bead was washed with phosphate-buffered saline (PBS), pH 7.2 and dried on filter paper for 5 min. The washed bead was added to a solution of [131I]NaI (100 MBq) in PBS. After shaking at RT for 5 min, the peptide solution (14 mg in 20 mL distilled water) was added to the [131I]NaI solution containing Iodo-bead. [131I]NaI (T1/2=[…]) was purchased from Korea Institute of Radiology and Science (KIRAMS; Seoul, Korea). The reaction was allowed to proceed for 15 min at RT by gentle shaking and then stopped by the removal of the bead out of the reaction tube. The 131I-incorporation yield measured by radio-TLC was 47% (silica, 10% ammonium acetate:methanol=30:70). […] The radiochemical purity of final solution was measured to be over 81.2%. […]\nIn contrast, uptake of the control peptide (313 μCi) was minimal (FIG. 8 D-F). These findings indicate that the radioactivity shown in rat bladder is not a non-specific one from urinary excretion of the radiolabeled peptides but a specific one from the uptake of the peptide by bladder tumor tissues."}, "[4]": {"system": "bladder tumor cells separated from the human bladder tissue", "assay": "Binding of phage clones to bladder tumor cells and normal bladder cells from patient tissue (phage titer)", "format": "cell-based", "conditions": "phage clones of Example 1", "procedure": "FIG. 3 is a graph showing the binding specificity of six positive phage clones to the bladder tumor cells separated from the human bladder tissue and to the normal bladder cells;\nBladder tumor cells were separated from fresh bladder tumor tissue obtained from six patients with a bladder tumor by transurethral resection of bladder tumor, according to a known method. The cells were measured for the specific binding of the six individual phage clones (SEQ ID NO: 1 to SEQ ID NO: 6) described in Example 1 to the tumor cells and compared their binding to that of the normal cells. First, bladder tumor tissue and normal bladder tissue were pulverized finely to provide cell suspensions, and the six phages (5×10^9 pfu) were allowed react with the cells at 4° C. for 2 hours. A non-recombinant phage, T7 415-1b phage, was used as a control phage. Next, tumor cells and the normal epithelial cells were separated from the cell suspensions formed from the tumor tissue and the normal tissue by using magnetic beads coated with epithelial cell antibodies, in the same manner as described in Example <1-2>. Then, phages were detected from the cells and measured for the titer of phages, in the same manner as described in Example <1-2>."}, "[5]": {"system": "bladder tumor tissue", "assay": "In vivo targeting after injection into the bladder via the urethra (BBN-induced bladder tumor)", "parameters": "species or system rat", "conditions": "50 μM injected into bladder via urethra, 30 minutes, FIG. 5", "description": "FIG. 5 is a set of photographs showing the binding specificity to bladder tumor tissue of the peptide according to the present invention having FITC attached thereto, after injecting the peptide into the mouse bladder in which a bladder tumor is induced, wherein the green fluorescence represents the peptide according to the present invention, and the red fluorescence represents an epithelial cell stained with cytokeratin;\n(§1) First, 4 week-aged F344 rats (n=10) (Hyochang Science) were fed with water containing 0.05% of N-butyl-N-4-hydroxybutylnitrosoamine (BBN) for 8 weeks to induce a bladder tumor.\n50 μM of FITC-CSNRDARRC peptide described in Example <2-2> was injected into the bladder of each of the mouse, in which a bladder tumor was induced, and a normal mouse via the urethra, followed by reaction for 30 minutes. Then, the bladder was removed from each mouse and a frozen section was provided. The frozen section was stained by H&E staining according to a method known to one skilled in the art. […] Then, 1:200 dilution of a secondary antibody, to which a red fluorescence material (Alexa red) was bonded, was allowed to react with the cells at room temperature for 1 hour, followed by treatment with a mounting solution containing DAPI. Next, the cells were observed by using a fluorescence microscope."}, "[6]": {"system": "bladder tumor cells", "assay": "In vivo targeting after tail vein injection (BBN-induced bladder tumor)", "parameters": "species or system rat", "conditions": "final 50 μM in blood", "description": "FIG. 6 is a set of photographs showing the in vivo targeting capability of the peptide according to the present invention, after injecting the peptide having FITC attached thereto into the tail venous vessel of a mouse in which a bladder tumor is induced, wherein the green fluorescence represents the peptide according to the present invention, and the red fluorescence represents an epithelial cell stained with cytokeratin;\nas §1\n(§2) The FITC-peptide 1 was injected into the mouse, in which a bladder tumor induced, and into the normal mouse via the tail venous to a final concentration of 50 μM in the blood, followed by circulation for 2 hours. Additionally, to determine whether the peptide according to the present invention specifically targets the bladder tumor in vivo, a malignant melanoma was induced in a mouse (Hyochang Science), and the peptide according to the present invention was injected into the mouse in the same manner as described above. Then, the bladder was removed from each mouse to prepare a frozen section, which, in turn, was stained by H&E staining or cytokeratin staining. Each section was observed by using a fluorescence microscope."}, "[7]": {"system": "malignant melanoma tissue", "assay": "In vivo targeting after tail vein injection in mouse with induced malignant melanoma", "conditions": "final 50 μM in blood, 2 hours", "procedure": "k: microscopic photograph of malignant melanoma of mouse injected with the peptide according to the present invention and stained with H & E; and\nl: fluorescence microscopic photograph of cancer tissue of mouse injected with the peptide according to the present invention and stained with DAPI; and\nas §2"}}, "note": "Positions of bridges follow the written chain, without caps; N, C: chain ends. No end group written: not given here. *: point of attachment. FITC = O=C1OC2(c3ccc(O)cc3Oc3cc(O)ccc32)c2ccc(NC(=S)*)cc21"}
{"substance": "CDASRRNRC (YCDASRRNRC; disulfide 2-10; numbers in words are those of the source; also: 124I radiolabel) [control peptide, radioiodinated with added N-terminal tyrosine for PET, reference compound]", "values": [{"measurement": "binding to bladder tumor tissue", "setting": "[1]", "value": "substantially showed no binding"}, {"measurement": "fluorescence/binding in urine cells of the patient suffering from bladder tumor", "setting": "[2]", "value": "could not be bonded"}, {"measurement": "uptake in bladder on micro PET images", "setting": "[3]", "value": "minimal"}]}
{"substance": "CSNRDARRC (disulfide 1-9; not fully specified (N-terminus)) [peptide 1]", "values": [{"measurement": "binding capability among the six phage clones", "setting": "[4]", "value": "highest binding capability"}]}
{"substance": "FITC-CSNRDARRC ({FITC}-CSNRDARRC; disulfide 1-9) [FITC-peptide 1, peptide 1 with FITC (fluorescein isothiocyanate) linked to its amino terminal]", "values": [{"measurement": "binding to bladder tumor tissue", "setting": "[1]", "value": "bonded specifically"}, {"measurement": "fluorescence in epithelial cells at the site where a bladder tumor was induced", "setting": "[5]", "value": "green fluorescence was observed"}, {"measurement": "fluorescence in epithelial cells covering the normal bladder", "setting": "[5]; normal animal", "value": "no fluorescence was observed"}, {"measurement": "detection of peptide in lung tissue of a normal mouse", "setting": "[6]; 2 hours", "value": "not detected"}, {"measurement": "detection of peptide in normal bladder cells", "setting": "[6]; 2 hours, normal animal", "value": "not detected"}, {"measurement": "targeting of bladder tumor cells after injection into the blood", "setting": "[6]; circulation 2 hours, FIG. 6", "value": "targets the bladder tumor cells"}, {"measurement": "detection of peptide in malignant melanoma tissue", "setting": "[7]", "value": "not detected"}, {"measurement": "fluorescence in control cells (urine of a normal human)", "setting": "[2]", "value": "fluorescence was not detected"}, {"measurement": "fluorescence/binding in urine cells of the patient suffering from bladder tumor", "setting": "[2]", "value": "green fluorescence was observed"}]}
